Assay results as given in a compilation of properties of binary mixtures (doi:10.1016/j.molliq.2017.12.017).

Assay: xn = mol fraction of the nth substance listed
Conditions: 101 kPa

CC[n+]1ccn(C)c1.O=S(=O)([O-])C(F)(F)F + COCCO
speed of sound [m/s]
Conditions	298.15 K	303.15 K	308.15 K	313.15 K	318.15 K
x1 = 0.0531	1359	–	1327	1310.8	1294.7
x1 = 0.1062	1367	1351.6	1336.4	–	1305.4
x1 = 0.1999	–	1365.9	1351.6	1337.2	–
x1 = 0.2935	1392	1378.7	–	1351.8	1338.3
x1 = 0.3958	1403.5	1390.9	1378.3	1365.7	–
x1 = 0.4452	–	1396.2	1383.9	1371.6	1359.3
x1 = 0.5036	1413.9	1402	1390	1378	1366.1
x1 = 0.5752	1419.9	1408.2	1396.6	1385	–
x1 = 0.6452	–	1413.5	1402.1	1390.8	1379.4
x1 = 0.7142	1429.2	1417.9	1406.7	1395.5	1384.3
x1 = 0.8049	–	1422.5	1411.3	–	1389.2
x1 = 0.8751	1436.5	1425.1	1413.9	1402.8	1391.8
x1 = 0.9522	–	1427	1415.7	1404.5	–
x1 = 1	1435.8	–	1413.5	1402.4	1391.4

COCCO + CC[n+]1ccn(C)c1.O=S(=O)([O-])C(F)(F)F
x2 = 0
Conditions	speed of sound [m/s]
298.15 K	1342.3
308.15 K	1308.2
313.15 K	1290.8
318.15 K	1273.6
